According to US11186585B2 (priority 2018, dated 2021):
“And” between values parts separate entries of the source, which are not always exact repeats. Equal values may be shown once. “Also recorded” adds a separate entry of the source. Marks after values point to notes of the source that are not given here.

Tests used:
healthy volunteers [1] = assay: Double-blind trial, heat pain threshold (hot water at 50° C.) after oral capsule; type: in vivo, human; settings: for % MPE (analgesia): oral, individual data, 33 45 mg, NB 35 mg, 39 68 mg; for analgesia in humans, in words: given orally, compared with equivalent dose of Nalbuphine (NB) and NB-39
Experimental: Double-blind, NB hydrochloride and NB-39 controlled, trial of the antinociceptive effect of oral NB-33 in healthy volunteers. […] Each week a healthy volunteer would receive a pill from the assigned set in a random fashion and take it orally. […]
(§1) Following one week of a wash out period, each volunteer repeated the protocol until all pills from the assigned set were administered. The individual data for heat pain threshold as % MPE=[(test latency−baseline latency)/(baseline latency)]×100 and for miosis as % MPE=[(test diameter−baseline diameter)/(baseline diameter)]×100 are shown in Table 2 and Table 3 respectively.
(§2) Independent samples t-test was used to compare the means of % MPE analgesia and miosis in the two pairs of samples: NB-33 and NB and NB-33 and NB-39. All analyses were made using SPSS (v.25). • Bold indicates statistical significance at α=0.05

[2] = Stability in the simulated gastro-intestinal fluid (sGIF); settings: 0.5% pepsine in 0.1N aqueous HCl, 37° C.; acceptance: NLT 80% of the derivative still intact after 4 hrs
Sprague-Dawley rats = assay: Antinociceptive activity, cold ethanol tail-flick test after oral gavage; type: in vivo, rat; settings: for analgesia in rats, in words: given orally, compared with equivalent dose of Nalbuphine (parent opioid); for Analgesia (rat): oral gavage in sesame oil, 60 uM/kg, one dose, tail-flick at −20° C., cutoff 40 seconds
healthy volunteers [3] = assay: Double-blind trial, miosis after oral capsule; type: in vivo, human; settings: for % MPE (miosis): oral, individual data, 33 45 mg, NB 35 mg, 39 68 mg; for effect on pupil dilation (miosis) in humans, in words: oral administration
Experimental: Double-blind, NB hydrochloride and NB-39 controlled, trial of the antinociceptive effect of oral NB-33 in healthy volunteers. Each of the three healthy volunteers was assigned a set of 6 non-transparent gelatin capsules as follows: 2×NB hydrochloride (MW=393.4; 39 mg), 2×NB-33 (MW=451.6; 45 mg) and 2×NB-39 (MW=680.0; 68 mg). Each week a healthy volunteer would receive a pill from the assigned set in a random fashion and take it orally. At T=0 hr, 0.25 hr, 0.5 hr, 1 hr, 1.5 hr, 2 hr, 3 hr and 5 hr followed oral administration a heat pain threshold was measured (hot water at 50° C.) as well as miosis.
as §1, §2

[4] = Stability in human plasma; settings: 37° C., acceptance criteria: NLT than 20% of hydrolysis after 4 hrs
rats = assay: Randall-Selitto test after SC dose; type: in vivo, rat; settings: for Randall-Selitto (g), individual animal: NB.HCl 3 mg/kg; for Randall-Selitto (g), individual animal / Randall-Selitto (g), Mean: NB-33.HCl 3.9 mg/kg; for Randall-Selitto (g), Mean: mean of 5, NB.HCl 3 mg/kg
Description: FIG. 13 illustrate in the graphical form the results for 1310 NB-33, marked 1310, in comparison to the base NB compound NB, marked 1320 in FIG. 13.

[5] = tested on: Human recombinant opiate receptor (mu, kappa or delta); assay: Human recombinant opiate receptor panel, overall profile in words; type: cell-based; settings: CHO-K1 cells, cAMP
Experimental: (§3) Human recombinant opiate receptor (mu, kappa or delta) expressed in CHO-K1 cells were used. Test compound (NB-33)/or vehicle was incubated with the cells (4×10E5/mL) in modified HBSS pH 7.4 buffer at […] for 30 min. The reaction was evaluated for cAMP levels by TR-FRET. Compounds were screened at 0.3, 1 and 3 uM. by Eurofins Pharma Discovery Services.
as §3, with “(NX-90)/or” for “(NB-33)/or”, “levels (cAMP and/or calcium flux)” for “levels”, “0.1, 0.3 and” for “0.3,”, “uM” for “and 3 uM.”

Structure (SMILES)	% MPE (analgesia) (healthy volunteers [1]; 0 hr (baseline)) [% MPE]	% MPE (analgesia) (healthy volunteers [1]; 0.25 hr)	% MPE (analgesia) (healthy volunteers [1]; 0.5 hr)	% MPE (analgesia) (healthy volunteers [1]; 1 hr)	% MPE (analgesia) (healthy volunteers [1]; 1.5 hr)	% MPE (analgesia) (healthy volunteers [1]; 2 hr)	% MPE (analgesia) (healthy volunteers [1]; 2.5 hr)	% MPE (analgesia) (healthy volunteers [1]; 3 hr)	% MPE (analgesia) (healthy volunteers [1]; 5 hr)	analgesia in humans, in words (healthy volunteers [1])	Stable in sGIF [2]	analgesia in rats, in words (Sprague-Dawley rats)	Analgesia (rat) (Sprague-Dawley rats)	% MPE (miosis) (healthy volunteers [3]; 0 hr (baseline)) [% MPE]	% MPE (miosis) (healthy volunteers [3]; 0.25 hr)	% MPE (miosis) (healthy volunteers [3]; 0.5 hr)	% MPE (miosis) (healthy volunteers [3]; 1 hr)	% MPE (miosis) (healthy volunteers [3]; 1.5 hr)	% MPE (miosis) (healthy volunteers [3]; 2 hr)	Stable in plasma [4]	other results
CCCCCCCCCCCCCCCCCCCCCC(=O)Oc1ccc2c3c1OC1C(O)CCC4(O)C(C2)N(CC2CCC2)CCC314 (stereo not drawn) [NB-39, 3-(cyclobutylmethyl)-4a,7-dihydroxy-2,3,4,4a,5,6,7,7a-octahydro-1H-4,12-methanobenzofuro[3,2-e]isoquinolin-9-yl docosanoate]	0.0	0.0 % MPE (2×) and 17.6 % MPE and 13.3 % MPE and 6.2 % MPE and 8.3 % MPE	10.0 % MPE and 11.8 % MPE and 40.0 % MPE and 6.2 % MPE and 55.6 % MPE and 15.0 % MPE	10.0 % MPE and 5.9 % MPE and 73.3 % MPE and 10.8 % MPE and 11.1 % MPE and 5.0 % MPE	15.0 % MPE and 11.8 % MPE and 93.3 % MPE and −7.7 % MPE and 19.4 % MPE and 5.0 % MPE	10.0 % MPE and 23.5 % MPE and 93.3 % MPE and 33.8 % MPE and 0.0 % MPE (2×)	5.0 % MPE (2×) and 0.0 % MPE and 46.7 % MPE and −6.2 % MPE and 16.7 % MPE	10.0 % MPE and 11.8 % MPE and 40.0 % MPE and 9.2 % MPE and 0.0 % MPE (2×)	0.0 % MPE (2×) and 6.7 % MPE and −9.2 % MPE and −2.8 % MPE and 5.0 % MPE	inferior	Yes	inferior	Inactive	0.0	10.3 % MPE and 0.0 % MPE and 25.0 % MPE and 12.5 % MPE and 20.0 % MPE and 3.1 % MPE	14.9 % MPE and 0.0 % MPE and 16.7 % MPE and 9.4 % MPE (2×) and 26.7 % MPE	37.9 % MPE and 6.7 % MPE and 22.2 % MPE and 18.8 % MPE and 36.7 % MPE and 21.9 % MPE	37.9 % MPE and 6.7 % MPE and 33.3 % MPE and 21.9 % MPE and 23.3 % MPE and 25.0 % MPE	14.9 % MPE and 0.0 % MPE and 25.0 % MPE and 17.2 % MPE and 16.7 % MPE and 6.2 % MPE	No	% MPE (miosis) (healthy volunteers [3]; 2.5 hr): 14.9 % MPE and 6.7 % MPE and 11.1 % MPE and 6.2 % MPE and 13.3 % MPE and 9.4 % MPE; % MPE (miosis) (healthy volunteers [3]; 3 hr): 24.1 % MPE and 0.0 % MPE (3×) and 11.1 % MPE and 3.3 % MPE; % MPE (miosis) (healthy volunteers [3]; 5 hr): 3.4 % MPE and 0.0 % MPE (2×) and 11.1 % MPE and 13.3 % MPE and 3.1 % MPE; effect on pupil dilation (miosis) in humans, in words (healthy volunteers [3]): did not significantly affect
C/C=C/C=C/C(=O)Oc1ccc2c3c1OC1C(O)CCC4(O)C(C2)N(CC2CCC2)CCC314.Cl (stereo not drawn) [NB-56, 3-(cyclobutylmethyl)-9-(((2E,4E)-hexa-2,4-dienoyl)oxy)-4a,7-dihydroxy-2,3,4,4a,5,6,7,7a-octahydro-1H-4,12-methanobenzofuro[3,2-e]isoquinolin-3-ium chloride]	–	–	–	–	–	–	–	–	–	–	Yes	–	No	–	–	–	–	–	–	No	Randall-Selitto (g), individual animal (rats; Post-dose 0.5 hr): 121 g and 120 g and 207 g and 161 g and 96 g; Randall-Selitto (g), Mean (rats; Post-dose 0.5 hr): 141.0* g; Randall-Selitto (g), individual animal (rats; Post-dose 1 hr): 98 g and 103 g and 199 g and 73 g and 86 g; Randall-Selitto (g), Mean (rats; Post-dose 1 hr): 111.8 g; Randall-Selitto (g), individual animal (rats; Post-dose 2 hr): 99 g and 94 g and 214 g and 102 g and 85 g; Randall-Selitto (g), Mean (rats; Post-dose 2 hr): 118.8 g; Randall-Selitto (g), individual animal (rats; Post-dose 4 hr): 83 g and 71 g and 136 g and 63 g and 97 g; Randall-Selitto (g), Mean (rats; Post-dose 4 hr): 90.0 g; Randall-Selitto (g), individual animal (rats; Post-dose 6 hr): 79 g and 64 g and 101 g and 65 g and 85 g; Randall-Selitto (g), Mean (rats; Post-dose 6 hr): 78.8 g; Randall-Selitto (g), individual animal (rats; Pre-treatment (baseline)): 93 g and 82 g and 98 g and 80 g and 96 g; Randall-Selitto (g), Mean (rats; Pre-treatment (baseline)): 89.8 g
C=CCN1CCC23c4c5ccc(OC(=O)/C=C/C=C/C)c4OC2C(=O)CCC3(O)C1C5 (stereo not drawn) [NX-90, 3-allyl-4a-hydroxy-7-oxo-2,3,4,4a,5,6,7,7a-octahydro-1H-4,12-methanobenzofuro[3,2-e]isoquinolin-9-yl (2E,4E)-hexa-2,4-dienoate]	–	–	–	–	–	–	–	–	–	–	–	–	–	–	–	–	–	–	–	–	pharmacological profile at opiate receptors, in words [5]: not a pharmacologically inert compound
C/C=C/C=C/C(=O)Oc1ccc2c3c1OC1C(O)CCC4(O)C(C2)N(CC2CCC2)CCC314 (stereo not drawn) [NB-33, 3-(cyclobutylmethyl)-4a,7-dihydroxy-2,3,4,4a,5,6,7,7a-octahydro-1H-4,12-methanobenzofuro[3,2-e]isoquinolin-9-yl (2E,4E)-hexa-2,4-dienoate]	0.0	0.0 % MPE (2×) and 8.3 % MPE and 3.7 % MPE and 31.3 % MPE and 30.0 % MPE	19.2 % MPE and 24.0 % MPE and 66.7 % MPE and 48.1 % MPE and 37.5 % MPE (2×)	100.0 % MPE and 80.0 % MPE and 183.3 % MPE and 59.3 % MPE and 50.0 % MPE and 67.5 % MPE	115.4 % MPE and 140.0 % MPE and 87.5 % MPE and 114.8 % MPE and 68.8 % MPE and 97.5 % MPE	111.5 % MPE and 124.0 % MPE and 191.7 % MPE and 185.2 % MPE and 81.3 % MPE and 157.5 % MPE	119.2 % MPE and 96.0 % MPE and 112.5 % MPE (2×) and 133.3 % MPE and 31.3 % MPE	157.7 % MPE and 60.0 % MPE and 45.8 % MPE and 118.5 % MPE and 25.0 % MPE and 27.5 % MPE	115.4 % MPE and 24.0 % MPE and 20.8 % MPE and 44.4 % MPE and 18.8 % MPE and 22.5 % MPE	superior	Yes	excellent and superior results; also recorded: better analgesia than the parent opioid	Excellent	0.0	26.7 % MPE and −8.8 % MPE and 0.3 % MPE and 20.0 % MPE and 0.0 % MPE and −5.0 % MPE	26.7 % MPE (3×) and 3.4 % MPE and 33.3 % MPE and −6.3 % MPE	40.4 % MPE (2×) and 24.0 % MPE and 42.2 % MPE and 33.9 % MPE and 26.7 % MPE	46.2 % MPE and 20.6 % MPE and 36.5 % MPE (2×) and 42.2 % MPE and 33.9 % MPE	55.9 % MPE and 37.8 % MPE and 46.2 % MPE (2×) and 42.2 % MPE and 42.9 % MPE	No	pharmacological profile at opiate receptors, in words [5]: not a pharmacologically inert compound; % MPE (miosis) (healthy volunteers [3]; 2.5 hr): 65.7 % MPE and 46.4 % MPE and 63.7 % MPE and 29.5 % MPE and 33.9 % MPE and 46.2 % MPE; % MPE (miosis) (healthy volunteers [3]; 3 hr): 29.0 % MPE and 3.4 % MPE and 36.5 % MPE (2×) and 15.6 % MPE and 25.0 % MPE; % MPE (miosis) (healthy volunteers [3]; 5 hr): 32.1 % MPE and 3.4 % MPE and 36.5 % MPE and 9.3 % MPE and 17.2 % MPE and 33.7 % MPE; effect on pupil dilation (miosis) in humans, in words (healthy volunteers [3]): superior; also recorded: significant effect; analgesic properties vs equimolar dose of the parent opioid NB, in words (Graph 1, FIG. 13) (rats; Randall-Selitto, rats): superior analgesic properties
